Assay results reported in PMC13164762, “Development and Validation of an LC-MS/MS Method for the Quantitation of JNJ-64619178 (JNJ) in Mouse Plasma: Characterization of In Vitro and In Vivo Pharmacokinetic Properties” (Molecules, 2026).
“And” between values parts separate entries of the source, which are not always exact repeats. Equal values may be shown once. Read-outs that look alike come from different tables or passages of the source.

Experiments:
[1] = Matrix stability study in mouse plasma; assay type: in vitro ADME; conditions: 5 µg mL^−1, 37 °C, approximately 5 h, triplicate, read-out: concentration remaining (%)
Method: For the matrix stability study, JNJ was spiked into mouse plasma and brain homogenate at a final concentration of 5 µg mL^−1 and incubated at 37 °C for 5 h on a shaking water bath in triplicate. At the specified sampling times, 50 µL aliquots were taken in the collection plate, followed by quenching with 300 µL acetonitrile containing 10 µL IS. After final collection, samples were vortexed at 1000 rpm for 2 min and centrifuged at 2200× g for 10 min, and the collected supernatant was analyzed using LC-MS/MS. Stability was estimated by determining the % remaining after 5 h of incubation using Equation (1).(1) % remaining=Concentration5h/Concentration0h×100

[2] = In vivo PK study (plasma, IV and PO); parameters: species or system balb/c mice; conditions: for half-life: read-out: t1/2 (terminal half-life) (converted)
Method: We performed in vivo PK analysis for JNJ by 2.5 mg kg^−1 IV and 10 mg kg^−1 PO routes of administration in healthy male balb/c mice. We could quantify a dynamic range of concentrations in in vivo PK samples with our established LC-MS/MS method. Non-compartmental analysis (NCA) was performed using Phoenix software version 8.3 to estimate PK parameters from the observed plasma concentration–time profile data. […] The NCA PK parameter data are represented in Table 6. For the oral PK study, male balb/C mice were grouped into two groups, with n = 4 for each group. Throughout the experiment, mice had free access to adequate food and water. The oral solution comprised 20% (v/v) polyethylene glycol 400, 10% (v/v) propylene glycol, 10% (v/v) ethanol, 2% (v/v) DMSO, 5% cremophore, and water as the rest of the volume. For the IV dose administration, 12 male balb/C mice were used in the study, divided into two groups. The IV solution used the same composition as the oral study. Doses of 10 and 2.5 mg kg^−1 were used for oral and IV routes, respectively. Blood samplings were done at 5 min, 15 min, 30 min, 1 h, 2 h, 4 h, 8 h, and 24 h. After collection, blood samples were centrifuged immediately at 956× g for 10 min, and plasma was separated in an Eppendorf tube and stored at −80 °C until processed. In the oral PK study, tissues—liver, kidney, spleen, lung, and brain—were collected at 2, 8, and 24 h to assess the biodistribution pattern of JNJ in the oral route.

[3] = Biodistribution and brain penetration after PO dose; assay type: in vivo, balb/c mice; conditions: for concentration at 2 h / concentration at 8 h / concentration at 24 h: po
Method: Mouse plasma and tissue samples (liver, spleen, kidney, lung and brain) were prepared following the SPE procedure. Collected tissues were homogenized using Tissue Lyser II purchased from Qiagen Science, KY, after adding four times as much water as the tissue mass. For calibration standards and QC sample preparation, the 10 µL working stock and IS were spiked into 100 µL mouse plasma or tissue homogenates (liver, spleen, kidney, lung, and brain). After vortexing for 30 s on a Mixmate (Eppendorf North America, Enfield, CT, USA), samples were diluted with 600 µL of 5% formic acid and vortexed again at 1000 rpm for 2 min. Samples were centrifuged at 956× g for 10 min to get a clear sample that was not prone to blocking the cartridge during the SPE. Extraction was initiated by conditioning the cartridge (Oasis HLB 1 cc, Waters, Millford, MA, USA) with 1 mL of methanol, followed by a second conditioning with 1 mL of water. Then, the above-prepared samples were loaded into the cartridge and allowed to pass through the cartridge. Next, the cartridge was washed with 1 mL 15% methanol and dried for 1 min prior to the elution. For final elution, 500 µL 5% ammonium hydroxide in acetonitrile was eluted through the cartridges twice. Collected eluates were dried in a nitrogen dryer and reconstituted with 200 µL of mobile phase. Reconstituted samples were centrifuged at 956× g for 10 min, 150 µL supernatants were collected, and 5 µL was injected for LC-MS/MS.
For the oral PK study, male balb/C mice were grouped into two groups, with n = 4 for each group. Throughout the experiment, mice had free access to adequate food and water. The oral solution comprised 20% (v/v) polyethylene glycol 400, 10% (v/v) propylene glycol, 10% (v/v) ethanol, 2% (v/v) DMSO, 5% cremophore, and water as the rest of the volume. For the IV dose administration, 12 male balb/C mice were used in the study, divided into two groups. The IV solution used the same composition as the oral study. Doses of 10 and 2.5 mg kg^−1 were used for oral and IV routes, respectively. Blood samplings were done at 5 min, 15 min, 30 min, 1 h, 2 h, 4 h, 8 h, and 24 h. After collection, blood samples were centrifuged immediately at 956× g for 10 min, and plasma was separated in an Eppendorf tube and stored at −80 °C until processed. In the oral PK study, tissues—liver, kidney, spleen, lung, and brain—were collected at 2, 8, and 24 h to assess the biodistribution pattern of JNJ in the oral route.

[4] = input for fu,inc equation; source not given; cited from earlier work
[5] = male, mouse, IV 2.5 mg kg^−1, balb/c mice, plasma, n = 6
[6] = male, mouse, PO 10 mg kg^−1, balb/c mice, plasma, n = 4

Compound: Nc1nc2cc(CC[C@H]3C[C@@H](n4ccc5c(N)ncnc54)[C@H](O)[C@@H]3O)ccc2cc1Br [JNJ, JNJ-64619178]
- remaining at 5 h, 5 µg mL^−1 [1]: ~100%
- underestimation of observed plasma clearance by predicted hepatic clearance ([2]; 1.6 vs 3.8 mL min^−1 kg^−1, mice): approximately 2.3 fold
- in vivo clearance as % of mice hepatic blood flow ([2]; IV, hepatic blood flow 3.6 L h^−1 kg^−1): ~6%
- volume of distribution relative to total body water ([2]; IV, total body water 68.6% of body weight): ~ 1.6 times
- CL (plasma clearance) ([2]; PO 10 mg kg^−1, balb/c mice, oral CL normalized by bioavailability (%)): 3.83 ± 0.67 mL/min/kg
- Vz (volume of distribution) ([2]; PO 10 mg kg^−1, balb/c mice, oral Vz normalized by bioavailability (%)): 0.88 ± 0.32 L/kg
- Tmax ([2]; PO 10 mg kg^−1, mice, plasma): ~ 30 min
- Cmax relative to IC50 in the HD-MB cell line ([2]; PO 10 mg kg^−1, times higher than IC50 (821 ng mL^−1)): ~ 3 times
- clearance ([2]; male, balb/c, mouse, plasma, 2.5 mg kg^−1, IV, equivalent to 0.23 L h^−1 kg^−1, read-out: observed plasma clearance): 3.8 mL/min/kg
- Tmax ([2]; male, balb/c, mouse, plasma, iv, 2.5 mg/kg, IV 2.5 mg kg^−1, balb/c mice, plasma, n = 6, read-out: Tmax (converted)): 6.6 ± 4.8 min
- Tmax ([2]; male, balb/c, mouse, plasma, po, 10 mg/kg, PO 10 mg kg^−1, balb/c mice, plasma, n = 4, read-out: Tmax (converted)): 25.2 ± 8.4 min
- Tmax ([2]; male, balb/c, mouse, plasma, po, 10 mg/kg, PO 10 mg kg^−1, mice, plasma, read-out: Tmax (converted)): 30 min
- clearance ([2]; male, mouse, plasma, IV 2.5 mg kg^−1, balb/c mice, n = 6, read-out: CL (plasma clearance) (converted)): 3.83 mL/min/kg
- Vd ([2]; male, mouse, plasma, IV 2.5 mg kg^−1, balb/c mice, n = 6, read-out: Vz (volume of distribution)): 1.2 ± 0.7 L/kg
- half-life ([2]; male, mouse, plasma, IV 2.5 mg kg^−1, balb/c mice, n = 6): 198 ± 66 min
- half-life ([2]; male, mouse, plasma, PO 10 mg kg^−1, balb/c mice, n = 4): 156 ± 42 min
- bioavailability ([2]; male, mouse, plasma, PO 10 mg kg^−1 vs IV 2.5 mg kg^−1, balb/c mice): ~15% and 15%
- AUC [2, 5]: 11600 ng·h/mL
- Cmax [2, 5]: 4940 ± 1220 ng/mL
- AUC [2, 6]: 6800 ± 1270 ng·h/mL
- Cmax [2, 6]: 2780 ± 1030 ng/mL
- Brain Content ([3]; 2 h after single PO 10 mg kg^−1, balb/c mice, n = 4): 55 ng/g
- Brain Content ([3]; 8 h after single PO 10 mg kg^−1, balb/c mice, n = 4): 34 ng/g
- Brain Content ([3]; 24 h after single PO 10 mg kg^−1, balb/c mice, n = 4): 23 ng/g
- unbound plasma and brain concentrations/contents, fold lower than in vitro IC50 ([3]; across all time points, PO 10 mg kg^−1): more than 20 fold
- concentration at 2 h ([3]; male, BALB/c, mouse, brain, 10 mg kg^−1, 2 h, PO 10 mg kg^−1, estimated with fu,brain = 0.057, read-out: Unbound Brain Content): 3.1 ng/g
- concentration at 2 h ([3]; male, BALB/c, mouse, brain, 10 mg kg^−1, 2 h after single PO 10 mg kg^−1, balb/c mice, n = 4, read-out: Brain Content): 55 ± 27 ng/g
- concentration at 8 h ([3]; male, BALB/c, mouse, brain, 10 mg kg^−1, 8 h, PO 10 mg kg^−1, estimated with fu,brain = 0.057, read-out: Unbound Brain Content): 1.9 ng/g
- concentration at 8 h ([3]; male, BALB/c, mouse, brain, 10 mg kg^−1, 8 h after single PO 10 mg kg^−1, balb/c mice, n = 4, read-out: Brain Content): 34 ± 1 ng/g
- concentration at 24 h ([3]; male, BALB/c, mouse, brain, 10 mg kg^−1, 24 h, PO 10 mg kg^−1, estimated with fu,brain = 0.057, read-out: Unbound Brain Content): 1.3 ng/g
- concentration at 24 h ([3]; male, BALB/c, mouse, brain, 10 mg kg^−1, 24 h after single PO 10 mg kg^−1, balb/c mice, n = 4, read-out: Brain Content): 23 ± 3 ng/g
- concentration at 8 h ([3]; male, BALB/c, mouse, kidney, 10 mg kg^−1, 8 h after single PO 10 mg kg^−1, balb/c mice, n = 4, read-out: Content, Kidney): 474 ± 131 ng/g
- concentration at 24 h ([3]; male, BALB/c, mouse, kidney, 10 mg kg^−1, 24 h after single PO 10 mg kg^−1, balb/c mice, n = 4, read-out: Content, Kidney): 56 ± 27 ng/g
- concentration at 8 h ([3]; male, BALB/c, mouse, liver, 10 mg kg^−1, 8 h after single PO 10 mg kg^−1, balb/c mice, n = 4, read-out: Content, Liver): 1190 ± 167 ng/g
- concentration at 24 h ([3]; male, BALB/c, mouse, liver, 10 mg kg^−1, 24 h after single PO 10 mg kg^−1, balb/c mice, n = 4, read-out: Content, Liver): 52 ± 31 ng/g
- concentration at 2 h ([3]; male, BALB/c, mouse, lung, 10 mg kg^−1, 2 h after single PO 10 mg kg^−1, balb/c mice, n = 4, read-out: Content, Lung): 2570 ± 550 ng/g
- concentration at 8 h ([3]; male, BALB/c, mouse, lung, 10 mg kg^−1, 8 h after single PO 10 mg kg^−1, balb/c mice, n = 4, read-out: Content, Lung): 599 ± 91 ng/g
- concentration at 24 h ([3]; male, BALB/c, mouse, lung, 10 mg kg^−1, 24 h after single PO 10 mg kg^−1, balb/c mice, n = 4, read-out: Content, Lung): 45 ± 25 ng/g
- concentration at 2 h ([3]; male, BALB/c, mouse, plasma, 10 mg kg^−1, 2 h, PO 10 mg kg^−1, balb/c mice, read-out: Plasma Concentration): 1470 ng/mL
- concentration at 2 h ([3]; male, BALB/c, mouse, plasma, 10 mg kg^−1, 2 h, PO 10 mg kg^−1, estimated with fu,plasma = 0.025, read-out: Unbound Plasma Concentration): 37 ng/mL
- concentration at 8 h ([3]; male, BALB/c, mouse, plasma, 10 mg kg^−1, 8 h, PO 10 mg kg^−1, balb/c mice, read-out: Plasma Concentration): 93 ng/mL
- concentration at 8 h ([3]; male, BALB/c, mouse, plasma, 10 mg kg^−1, 8 h, PO 10 mg kg^−1, estimated with fu,plasma = 0.025, read-out: Unbound Plasma Concentration): 2.3 ng/mL
- concentration at 24 h ([3]; male, BALB/c, mouse, plasma, 10 mg kg^−1, 24 h, PO 10 mg kg^−1, balb/c mice, read-out: Plasma Concentration): 1.6 ng/mL
- concentration at 24 h ([3]; male, BALB/c, mouse, plasma, 10 mg kg^−1, 24 h, PO 10 mg kg^−1, estimated with fu,plasma = 0.025, read-out: Unbound Plasma Concentration): 0.04 ng/mL
- concentration at 2 h ([3]; male, BALB/c, mouse, spleen, 10 mg kg^−1, 2 h after single PO 10 mg kg^−1, balb/c mice, n = 4, read-out: Content, Spleen): 1900 ± 220 ng/g
- concentration at 8 h ([3]; male, BALB/c, mouse, spleen, 10 mg kg^−1, 8 h after single PO 10 mg kg^−1, balb/c mice, n = 4, read-out: Content, Spleen): 643 ± 58 ng/g
- concentration at 24 h ([3]; male, BALB/c, mouse, spleen, 10 mg kg^−1, 24 h after single PO 10 mg kg^−1, balb/c mice, n = 4, read-out: Content, Spleen): 95 ± 25 ng/g
- concentration at 2 h ([3]; male, balb/c, mouse, kidney, 10 mg kg^−1, 2 h after single PO 10 mg kg^−1, balb/c mice, n = 4, read-out: Content, Kidney): 2950 ± 822 ng/g
- concentration at 2 h ([3]; male, balb/c, mouse, liver, 10 mg kg^−1, 2 h after single PO 10 mg kg^−1, balb/c mice, n = 4, read-out: Content, Liver): 6070 ± 1500 ng/g
- Kp uu at 2 h ([3]; male, mouse, brain, 2 h, PO 10 mg kg^−1, balb/c mice, read-out: Kp,uu,brain (unbound brain-to-plasma partition coefficient)): 0.08
- Kp uu at 8 h ([3]; male, mouse, brain, 8 h, PO 10 mg kg^−1, balb/c mice, read-out: Kp,uu,brain (unbound brain-to-plasma partition coefficient)): 0.82
- Kp uu at 24 h ([3]; male, mouse, brain, 24 h, PO 10 mg kg^−1, balb/c mice, read-out: Kp,uu,brain (unbound brain-to-plasma partition coefficient)): 33.3
- logP [4]: 2.3
